Columns and labels:
human renal cells = conditions: LPS as an endotoxin acting on human renal cells; Non Patent Literature 6; cited from earlier work
[1] = tested on: AT2 receptor deficient mice, CDDP induced acute kidney injury; experiment: CDDP induced acute kidney injury-inhibiting effects on AT2 receptor deficient mice; type: in vivo; conditions: male AT2 receptor deficient mice; CDDP 15 mg/kg i.p.; oral 30 mg/kg per day from 3 days before; 72 hours after CDDP
Method: To 8- to 12-week-old male AT2 receptor deficient mice (n=3 or 5 to 7), 15 mg/kg of cisplatin (CDDP, disease group) or 30 mL/kg of phosphate buffered saline (PBS, normal group) was intraperitoneally administered.
A 0.2 mg/mL aqueous solution of Compound C in 0.5% carboxymethylcellulose (CMC) was prepared and orally administered so that Compound C was at a dose of 30 mg/kg per day from 3 days before the start of the experiment, and the mice were subjected to the experiment. To the control group, the same dose of 0.5% CMC aqueous solution was administered.
At 72 hours after CDDP administration, incision in the abdomen was performed under sevoflurane anesthesia, and the whole blood was collected from the abdominal great vein using a syringe. The blood was centrifuged, and the supernatant (serum) was collected. The serum was stored at −20 to −80° C. Immediately before dissection, spot urine was collected from each mouse.
Using the measurement kits, urinary albumin (Alb) and urinary creatinine (Cr) were measured for the calculation of the urinary Alb/Cr ratio, and also blood urea nitrogen (BUN) was measured. The results are shown in FIG. 3 (urinary Alb/Cr ratio) and FIG. 4 (BUN).

## CCCCOC(=O)NS(=O)(=O)c1sc(CC(C)C)cc1-c1ccc(Cn2ccnc2)cc1 [Example C21]
Human renal cells
  level of IL-6: lowered
  level of TNF-α: lowered

## CCN(CC)C(=O)[C@H](Cc1ccc(NC(=O)c2ccccc2)cc1)C(=O)NS(=O)(=O)c1ccc2ccccc2c1 [Compound C, (2S)-2-[4-(benzoylamino)benzyl]-N,N-diethyl-N′-(2-naphthylsulfonyl)malonamide]
[1]
  inhibition of acute kidney injury caused by CDDP (urinary Alb/Cr ratio, FIG. 3; BUN, FIG. 4): not effective

— US20180280326A1, “MEDICAMENT FOR PREVENTING OR INHIBITING ACUTE KIDNEY INJURY” (National Cerebral and Cardiovascular Center, priority 2015, published 2018)
